By IC50 is commonly meant the point on the concentration scale where inhibition reaches its midpoint.

Assay [1] deals with T1, wild type NTRK1 enzyme (Homo sapiens, UniProt P04629).
T1 construct: purchased BPS Bioscience 40280
The experiment in a line: NTRK1 Wild Type Assay at 1 mM ATP. Format: biochemical. The note with it: 1 mM ATP; read-out: Enz NTRK1 IC50. The method, then: NTRK1 Wild Type Assay at 1 mM ATP
The reaction was stopped by the addition of 70 μL of Stop buffer (100 mM HEPES pH 7.5, 0.015% Brij 35, 35 mM EDTA and 0.2% of Coating Reagent 3 (Caliper Lifesciences)). The plate was then read on a Caliper EZReader 2 (protocol settings: −1.7 psi, upstream voltage −500, downstream voltage −3000, post sample sip 35s).

For assay [2], the system named is KM12 wild type colon carcinoma cell line harboring the TPM3-NTRK1 fusion protein. Briefly: NTRK wild type cellular assay (CellTiter-Glo growth inhibition). The assay is classed as cell-based. The note with it: 72 hr, CellTiter-Glo, read-out: KM12 (WT) IC50. Put shortly:
(§1)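 KM12 (TPM3-NTRK1 fusion) or KM12 Cliff (G595R) cells at 1000 cells/well in 10% FBS media were dosed with compounds at varying concentrations in duplicate after overnight plating.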
On the technique in general: In ATP-based viability assays light output follows the ATP content of the culture.

The subject of assay [3] is KM12 Cliff (G595R) cell line. Briefly: NTRK G595R mutant cellular assay (CellTiter-Glo growth inhibition). As to conditions: 72 hr, CellTiter-Glo. The assay is classed as cell-based. The procedure, abridged: as §1

Like-named read-outs stand apart in the source and are kept apart here.

T1 sequence (P04629 440-796 limits assumed): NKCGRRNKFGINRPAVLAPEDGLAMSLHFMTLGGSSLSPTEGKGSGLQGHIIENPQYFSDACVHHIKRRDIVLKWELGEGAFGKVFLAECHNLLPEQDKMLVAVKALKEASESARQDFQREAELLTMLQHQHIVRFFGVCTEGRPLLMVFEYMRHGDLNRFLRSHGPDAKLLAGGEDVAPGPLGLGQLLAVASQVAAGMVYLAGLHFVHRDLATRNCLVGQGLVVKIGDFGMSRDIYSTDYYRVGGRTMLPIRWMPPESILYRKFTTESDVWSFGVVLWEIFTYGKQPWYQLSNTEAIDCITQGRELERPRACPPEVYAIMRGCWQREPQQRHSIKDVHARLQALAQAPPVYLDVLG

Regarding `O=C(NCc1cc(F)ccc1F)c1n[nH]c2ncnc(NC3CCC(O)C3O)c12` (stereo not drawn) [Compound 10], the IC50 is 100 to 1000 nM in assay [1], 100 to 1000 nM in assay [2] and more than 1000 nM in assay [3].

For the compound `CN(Cc1cccc(C#N)c1)C(=O)c1n[nH]c2ncnc(N[C@@H]3CC[C@@H](O)[C@H]3O)c12` [Compound 134], the IC50 in assay [1], in assay [2] and in assay [3] was 100 to 1000 nM in each case.

For the compound `O=C(c1n[nH]c2ncnc(N[C@@H]3C=C[C@@H](O)[C@H]3O)c12)N1C[C@@H](F)C[C@@H]1c1cc(F)cc(Cl)c1` [Compound 192], the IC50 is less than 10 nM in assay [1], 10 to 100 nM in assay [2] and 10 to 100 nM in assay [3].

Consider `O=C(c1n[nH]c2ncnc(NC3CC(F)CC3O)c12)N1CC(F)CC1c1cc(F)cc(F)c1F` (stereo not drawn) [Compound 208], for which the IC50 in assay [1] is less than 10 nM; in assay [2] (Homo sapiens, KM12, 72 h), less than 10 nM; in assay [3] (Homo sapiens, KM12, 72 h), less than 10 nM.

Regarding `O=C(c1n[nH]c2ncnc(N[C@@H]3CC[C@@H](O)[C@H]3O)c12)N1CCC[C@@H]1c1cc(F)ccc1F` [Compound 71], the IC50 is 10 to 100 nM in assay [1]; 10 to 100 nM in assay [2] (Homo sapiens, KM12, 72 h); 100 to 1000 nM in assay [3] (Homo sapiens, KM12, 72 h).

On to `O=C(c1n[nH]c2ncnc(NC3COCC(O)C3O)c12)N1CC(F)CC1c1cccc(F)c1` (stereo not drawn) [Compound 169], for which the half-maximal inhibitory concentration (IC50) in assay [1], in assay [2] and in assay [3] was 10 to 100 nM throughout.

Take `O=C(c1n[nH]c2ncnc(N[C@@H]3CC[C@@H](O)[C@H]3O)c12)N1C[C@@H](F)C[C@@H]1c1cc(F)cc(Cl)c1` [Compound 127]: the IC50 was less than 10 nM in assay [1]; less than 10 nM in assay [2] (Homo sapiens, KM12, 72 h); less than 10 nM in assay [3] (Homo sapiens, KM12, 72 h).

In the case of `COc1ccc(F)cc1CNC(=O)c1n[nH]c2ncnc(N[C@@H]3COCC[C@H]3O)c12` [Compound 24], the concentration for half-maximal inhibition (IC50) fell in the range of 10 to 100 nM in assay [1]; 100 to 1000 nM in assay [2] (Homo sapiens, KM12, 72 h); 100 to 1000 nM in assay [3] (Homo sapiens, KM12, 72 h).

Consider `O=C(c1n[nH]c2ncnc(N[C@H]3[C@H](O)[C@H](O)[C@@H]4C[C@@H]43)c12)N1C[C@@H](F)C[C@@H]1c1cccc(F)c1` [Compound 122], for which the IC50 in assay [1] is less than 10 nM; in assay [2] (Homo sapiens, KM12, 72 h) it was less than 10 nM; in assay [3] (Homo sapiens, KM12, 72 h) it was less than 10 nM.

In the case of `CN(Cc1cc(F)ccc1OC(F)(F)F)C(=O)c1n[nH]c2ncnc(NC3COCC(O)C3O)c12` (stereo not drawn) [Compound 228], the IC50 in assay [1], in assay [2] and in assay [3] was 10 to 100 nM in each case.

For `CN(Cc1cc(F)cc(OC(F)F)c1)C(=O)c1n[nH]c2ncnc(N[C@@H]3CC[C@@H](O)[C@H]3O)c12` [Compound 179], the IC50 is 10 to 100 nM in assay [1], 10 to 100 nM in assay [2] and 100 to 1000 nM in assay [3].

Consider `O=C(c1n[nH]c2ncnc(N[C@@H]3CCOC[C@H]3O)c12)N1C[C@@H](F)C[C@@H]1c1ccccc1` [Compound 145], for which the half-maximal inhibitory concentration (IC50) in assay [1] was in the range of 100 to 1000 nM; in assay [2] (Homo sapiens, KM12, 72 h), 10 to 100 nM; in assay [3] (Homo sapiens, KM12, 72 h) it was 100 to 1000 nM.

Regarding `CC(C)(O)[C@H]1C[C@@H](O)[C@H](Nc2ncnc3[nH]nc(C(=O)N4C[C@@H](F)C[C@@H]4c4cc(F)ccc4F)c23)C1` [Compound 232, ((2R,4S)-2-(2,5-difluorophenyl)-4-fluoropyrrolidin-1-yl)(4-(((1R,2R,4R)-2-hydroxy-4-(2-hydroxypropan-2-yl)cyclopentyl)amino)-1H-pyrazolo[3,4-d]pyrimidin-3-yl)methanone], the IC50 was less than 10 nM in assay [1]; less than 10 nM in assay [2] (Homo sapiens, KM12, 72 h); less than 10 nM in assay [3] (Homo sapiens, KM12, 72 h).

In the case of `O=C(c1n[nH]c2ncnc(N[C@@H]3COCC[C@H]3O)c12)N1C[C@@H](F)C[C@@H]1c1cc(F)ccc1F` [Compound 92], the IC50 is less than 10 nM in assay [1]; less than 10 nM in assay [2] (Homo sapiens, KM12, 72 h); less than 10 nM in assay [3] (Homo sapiens, KM12, 72 h).

As for `O=C(c1n[nH]c2ncnc(N[C@@H]3C=C[C@@H](O)[C@H]3O)c12)N1C[C@@H](F)C[C@@H]1c1cc(F)cc(F)c1F` [Compound 199], the IC50 in assay [1] was 10 to 100 nM; in assay [2], less than 10 nM; in assay [3] it was less than 10 nM.

On to `CN(Cc1cc(Cl)ccc1F)C(=O)c1n[nH]c2ncnc(N[C@@H]3COC[C@@H](O)[C@H]3O)c12` [Compound 163], for which the concentration for half-maximal inhibition (IC50) in assay [1] is less than 10 nM; in assay [2] (Homo sapiens, KM12, 72 h) it was 10 to 100 nM; in assay [3] (Homo sapiens, KM12, 72 h), 10 to 100 nM.

In the case of `O=C(c1n[nH]c2ncnc(N[C@@H]3CCOC[C@H]3O)c12)N1C[C@@H](F)C[C@@H]1c1cncc(F)c1` [Compound 73], the IC50 was less than 10 nM in assay [1]; less than 10 nM in assay [2] (Homo sapiens, KM12, 72 h); 10 to 100 nM in assay [3] (Homo sapiens, KM12, 72 h).

Consider `O=C(c1n[nH]c2ncnc(N[C@@H]3C[C@@H](C(F)F)[C@@H](O)[C@H]3O)c12)N1C[C@@H](F)C[C@@H]1c1cc(F)ccc1F` [Compound 114], for which the IC50 is less than 10 nM in assay [1]; less than 10 nM in assay [2] (Homo sapiens, KM12, 72 h); less than 10 nM in assay [3] (Homo sapiens, KM12, 72 h).

Take `CN(Cc1cc(F)cn(C)c1=O)C(=O)c1n[nH]c2ncnc(N[C@@H]3CCC[C@H]3O)c12` [Compound 136]: the IC50 is less than 10 nM in assay [1]; 10 to 100 nM in assay [2] (Homo sapiens, KM12, 72 h); 10 to 100 nM in assay [3] (Homo sapiens, KM12, 72 h).

`O=C(c1n[nH]c2ncnc(N[C@@H]3CCOC[C@H]3O)c12)N1C[C@@H](F)C[C@@H]1c1cccc(F)c1` [Compound 158]: the IC50 in assay [1] was less than 10 nM; in assay [2] (Homo sapiens, KM12, 72 h) it was 10 to 100 nM; in assay [3] (Homo sapiens, KM12, 72 h), 10 to 100 nM.

With `O=C(c1n[nH]c2ncnc(N[C@@H]3CC[C@@H](O)[C@H]3O)c12)N1C[C@@H](F)C[C@@H]1c1cccc(F)c1F` [Compound 176], the IC50 was less than 10 nM in assay [1], 10 to 100 nM in assay [2] and 10 to 100 nM in assay [3].

For `CC(c1cc(F)ccc1F)N(C)C(=O)c1n[nH]c2ncnc(NC3COCC(O)C3O)c12` (stereo not drawn) [Compound 160], the values for the IC50 in assay [1], in assay [2] and in assay [3] were less than 10 nM, 10 to 100 nM and 10 to 100 nM, respectively.

On to `COc1ccc(F)cc1CNC(=O)c1n[nH]c2ncnc(N[C@@H]3CC[C@@H](O)[C@H]3O)c12` [Compound 117], for which the IC50 was 100 to 1000 nM in assay [1]; 100 to 1000 nM in assay [2] (Homo sapiens, KM12, 72 h); more than 1000 nM in assay [3] (Homo sapiens, KM12, 72 h).

Consider `O=C(c1n[nH]c2ncnc(NC3CCCC(O)C3O)c12)N1CC(F)CC1c1cc(F)ccc1OC(F)(F)F` (stereo not drawn) [Compound 243], for which the IC50 in assay [1], in assay [2] and in assay [3] was less than 10 nM each time.

In the case of `CN(Cc1cc(F)ccc1OC(F)(F)F)C(=O)c1n[nH]c2ncnc(N[C@@H]3CC[C@@H](O)[C@H]3O)c12` [Compound 110], the IC50 in assay [1] was less than 10 nM; in assay [2] (Homo sapiens, KM12, 72 h), 10 to 100 nM; in assay [3] (Homo sapiens, KM12, 72 h) it was 10 to 100 nM.

In the case of `CC(NC(=O)c1n[nH]c2ncnc(NC3CCOCC3O)c12)c1cc(F)ccc1F` (stereo not drawn) [Compound 31], the IC50 in assay [1], in assay [2] and in assay [3] was 100 to 1000 nM each time.

As to `O=C(c1n[nH]c2ncnc(N[C@@H]3C=C[C@@H](O)[C@H]3O)c12)N1C[C@@H](F)C[C@@H]1c1cccc(F)c1F` [Compound 172], the IC50 in assay [1] was less than 10 nM; in assay [2], 10 to 100 nM; in assay [3], 10 to 100 nM.

In the case of `COc1c(F)cc(F)cc1C1CC(F)CN1C(=O)c1n[nH]c2ncnc(NC3CCCC(O)C3O)c12` (stereo not drawn) [Compound 234], the IC50 in assay [1], in assay [2] and in assay [3] was less than 10 nM throughout.

For `COc1c(F)cc(F)cc1C1CC(F)CN1C(=O)c1n[nH]c2ncnc(NC3CCOCC3O)c12` (stereo not drawn) [Compound 218], the IC50 in assay [1], in assay [2] and in assay [3] was less than 10 nM each time.

`CS(=O)(=O)C1CC(O)C(Nc2ncnc3[nH]nc(C(=O)N4CC(F)CC4c4cc(F)ccc4F)c23)C1` (stereo not drawn) [Compound 116]: the IC50 was less than 10 nM in assay [1]; less than 10 nM in assay [2] (Homo sapiens, KM12, 72 h); less than 10 nM in assay [3] (Homo sapiens, KM12, 72 h).

`O=C(c1n[nH]c2ncnc(N[C@H]3[C@H](O)[C@H](O)[C@@H]4C[C@@H]43)c12)N1CC(F)(F)C[C@@H]1c1cc(F)ccc1F` [Compound 112]: the IC50 in assay [1] fell in the range of 10 to 100 nM; in assay [2] (Homo sapiens, KM12, 72 h) it was 10 to 100 nM; in assay [3] (Homo sapiens, KM12, 72 h), 100 to 1000 nM.

For the compound `N#C[C@H]1C[C@@H](O)[C@H](Nc2ncnc3[nH]nc(C(=O)N4C[C@@H](F)C[C@@H]4c4cc(F)cc(F)c4F)c23)C1` [Compound 212], the IC50 in assay [1], in assay [2] and in assay [3] was less than 10 nM in each case.

For the compound `O=C(c1n[nH]c2ncnc(N[C@H]3[C@H](O)[C@H](O)[C@@H]4C[C@@H]43)c12)N1C[C@@H](F)C[C@@H]1c1cc(F)cnc1F` [Compound 216], the IC50 in assay [1], in assay [2] and in assay [3] was less than 10 nM in each case.

As to `O=C(c1n[nH]c2ncnc(N[C@@H]3C[C@@H](C(F)F)C[C@H]3O)c12)N1C[C@@H](F)C[C@@H]1c1cncc(F)c1` [Compound 203], the IC50 in assay [1] was less than 10 nM; in assay [2] (Homo sapiens, KM12, 72 h), less than 10 nM; in assay [3] (Homo sapiens, KM12, 72 h) it was less than 10 nM.

Turning to `O=C(c1n[nH]c2ncnc(NC3CCCC(F)(F)[C@H]3O)c12)N1C[C@@H](F)C[C@@H]1c1cc(F)ccc1F` (stereo partly drawn) [Compound 225], the IC50 in assay [1] is less than 10 nM; in assay [2], 10 to 100 nM; in assay [3], 10 to 100 nM.

Regarding `CN(Cc1cccc(Cl)c1)C(=O)c1n[nH]c2ncnc(N[C@@H]3CC[C@@H](O)[C@H]3O)c12` [Compound 137], the IC50 in assay [1], in assay [2] and in assay [3] was 10 to 100 nM in each case.
